Source: patent US20130345164A1, “TREATMENTS FOR CELLULAR PROLIFERATIVE DISORDERS AND IDENTIFICATION THEREOF” (UNIVERSITY OF MEDICINE AND DENTISTRY OF NEW JERSEY, priority 2010, published 2013)

How the values were obtained:
p21 protein = assay: Western Blot of p21 protein levels; assay type: cell-based, human
[1] = test system: cells carrying p53 mutations; assay: NCI60 screen Score ranking, p53 mutant case group vs p53 wild-type control group; conditions: p53 273/248 mutant case group vs p53 wild-type control group; NCI60 data
Protocol: The Score calculations are carried out by: • (1) calculating a Responsive Fraction, i.e., the fraction of the case cell lines in the Case Group that are responsive to the test treatment; • (2) calculating a Non-Responsive Fraction i.e., the fraction of the control cell lines in the Control Group that are not responsive to the test treatment; and • (3) generating a Score of the test treatment according to Formula I:
Score=the Responsive Fraction×the Non-Responsive Fraction.
Among the NCI60 cell lines, 16 have wild-type p53 and 44 carry a p53 alteration (Ikediobi, O. N., et al., Mol Cancer Ther, 2006. 5(11): p. 2606-12). Mutations at amino acids 273 and 248 are the most frequent, with 5 and 4 cell lines, respectively. Given the abundance of p53 mutations at positions 273 and 248 within the NCI60 cell lines, and their location in the p53-DNA contact, cells carrying these mutations were chosen to form a case group to identify compounds with increased activity in tumors with a mutant p53. On the other hand, cells with a wild-type p53 were chosen to form a control group. The resulting groups are the following:
• Leukemia: CCRF-CEM; • Lung Cancer: NCI-H322M; • Central Nervous System Cancer: SF-295, SF-268, SNB-19, and U251; • Colorectal Cancer: HT29 and SW-620; • Ovarian Cancer: OVCAR-3.
• Breast Cancer: MCF7; • Colorectal Cancer: HCT-116; • Lung Cancer: A549, NCI-H226, and NCI-H460; • Leukemia: SR; • Melanoma: LOXIMVI, MALME-3M, SK-MEL-5, UACC-257, and UACC-62; • Ovarian Cancer: OVCAR-5; • Renal Cancer: A498, ACHN, CAKI-1, and UO-31.
Using the protocols described above, the NCI60 treatment-cell line RG was constructed, taking RS=log10IC50-average(log10IC50) as a relative response sensitivity measurement and computing the average(log10IC50) over all the 60 cell lines. The Case and Control groups listed above were chosen, and the score in Formula I was computed for the 47,624 compounds in the NCI60 screen.

[2] = test system: 10(3) cells with human mutant p53 construct 175; assay: Growth inhibition assay on isogenic murine fibroblast lines (96-well MTS); assay type: cell-based; conditions: cells carrying the p53^173 mutation (so in the source)
Protocol: (§1) None of these compounds have been previously reported for their selective activity in cells with a mutant p53. To provide further evidence for their specificity, growth inhibition assays were performed on isogenic cell lines. Previously developed murine fibroblast cell line (10)3 (p53 null) and 10(3) with transfection of cytomegalovirus-human mutant p53 constructs (273, 248 and 175) (Dittmer, D., et al., Nature Genetics, 1993. 4(1): p. 42-6) were used as cases, while the murine fibroblast cell line 3T3 was used as a p53 wild type control.
(§2) The compounds were validated using several different cell line systems. The first system used was a mouse embryonic fibroblast (MEF) system in which a p53 null MEF line, 10(3), was used as a parental line from which several stable CMV-mutant p53 transfectants were derived. The p53 mutations investigated were the “hot spot” mutants 175, 248, and 273. NIH3T3 fibroblasts were used as a p53 wild type control.

[3] = test system: 10(3) cells with human mutant p53 construct 248; assay: as above; assay type: cell-based; conditions: cells with mutation p53^248
Protocol: as §1, §2

[4] = test system: 10(3) cells with human mutant p53 construct 273; assay: as above; assay type: cell-based; conditions: cells with mutation p53^273
Protocol: as §1, §2

[5] = test system: murine fibroblast cell line (10)3 (p53 null); assay: as above; assay type: cell-based; conditions: p53^null cells
Protocol: as §1, §2

[6] = test system: MEF cells with exogenous p53 mutations; assay: Apoptosis by Annexin V staining in MEF cells; assay type: cell-based, mouse; conditions: MEF cells with exogenous p53 mutations
Source text: Briefly, apoptosis was examined by Annexin V staining using standard methods.

p53 R175H = molecular target: T1, p53 R175H (Homo sapiens, UniProt P04637, R175H); assay: Immunoprecipitation of TOV112D lysates with mutant specific antibody PAB240; assay type: cell-based; conditions: detection with DO-1
T1 construct: one ovarian carcinoma cell line containing a p53^R175H (TOV112D); endogenous in cells; host or cells: TOV112D human ovarian carcinoma cells
Source text: This conformational change was confirmed by immunoprecipitation of lysates from NSC319726-treated TOV112D cells using the mutant specific antibody PAB240. To that end, cell lysates were precipitated with PAB240 and detected with p53 (DO-1) antibody which recognizes all types of p53 protein conformations.

[7] = test system: p53 targets (p21, PUMA, and MDM2); assay: Quantitative real-time PCR of p53 targets; assay type: cell-based, human; conditions: TOV112D cells, treated vs untreated, normalized with actin
Protocol: Each treatment had three independent repeats (labeled as 1, 2, and 3); (e) Comparison of the p53 expression signatures of 319726 treated cells with that of p53 wild type, p53 null and p53R175H cell lines in response to gamma-irradiation.
Assays were carried out to compare the mRNA levels of several p53 targets (p21, PUMA, and MDM2) in the TOV112D (p53R175H), OVCAR3 (p53R248W) and SKOV3 (p53 null) upon treatment with the compounds. The relative gene expression level was normalized with the actin and the ratio of the treated level vs. untreated level was shown for each cell line.

COc1cc([C@@H]2c3cc4c(cc3[C@@H](O[C@@H]3O[C@@H]5CO[C@@H](C)O[C@H]5[C@H](O)[C@H]3O)[C@H]3COC(=O)[C@H]23)OCO4)cc(OC)c1O [Etoposide, reference compound]
p21 induction (Western blot) (p21 protein; TOV112D (p53R175H)): failed to induce p21

CC1=CC(=C(c2ccc(N)cc2)c2ccc(N)cc2)C=CC1=N.Cl [NSC93739]
Score (Formula I) [1]: 0.50

COc1ccc2c(c1)c1c(C)c3c[n+](C)ccc3c(C)c1n2C [NSC155694]
Score (Formula I) [1]: 0.55

CC(=NNC(=S)N(C)C)c1ccccn1 [NSC319725]
Score (Formula I) [1]: 0.50 | IC50 [2]: ~10 nM | IC50 [3]: ~100 nM | IC50 [4]: ~100 nM | IC50 [5]: ~100 nM | induction of apoptosis (Annexin V staining) [6]: did not induce apoptosis | amount of p53 R175H immunoprecipitated by mutant specific antibody PAB240 (p53 R175H): not | p21 induction (Western blot) (p21 protein; SKOV3 (p53 null)): did induce p21 | p21 induction (Western blot) (p21 protein; TOV112D (p53R175H)): did not induce p21 | induction of mRNA of p53 targets p21, PUMA, MDM2 [7]: no such effect

CC(=O)c1ccc2c(c1)c1c(C)c3c[n+](C)ccc3c(C)c1n2C.[I-] [NSC612941]
Score (Formula I) [1]: 0.55

Cc1ccc(S(=O)(=O)O)cc1.Cn1c2ccccc2n2c3ccccc3c3nnc(N)c-3c12 [NSC694266]
Score (Formula I) [1]: 0.50
